Laboratory results taken from paper PMC5942189 (Journal of the American Chemical Society, 2018).

Key:
[1] = system: Escherichia coli W3110 (wild-type); assay: MIC determination in Mueller-Hinton broth, E. coli W3110; assay type: cell-based; conditions: standard Mueller-Hinton broth assay
[2] = system: multi-drug-resistant Acinetobacter baumannii (Ab) 5075; assay: MIC determination in Mueller-Hinton broth, A. baumannii 5075; assay type: cell-based; conditions: multi-drug-resistant A. baumannii Ab5075; standard Mueller-Hinton broth assay
[3] = system: E. coli WD101 (isogenic CAMP-resistant mutant, colistin-resistant); assay: MIC determination in Mueller-Hinton broth, E. coli WD101; assay type: cell-based, Escherichia coli; conditions: standard Mueller-Hinton broth assay

Row | Substance | MIC [1] [µM] | MIC [2] [µM] | MIC [3] [µM]
1 | N-AlTRSSRAGLQFPVGRVHRLLRKF-Hy (sidechain bridge or staple) [HyRes buforin] | 8 | 4 | 16
2 | N-XTRSSRAGLQFPVGRVHRLLRXK-C [DiHy buforin] | – | 64 | –
3 | N-XTRSSRAGLQFPXVGRVHRLLRXK-C [TriAl buforin] | – | 64 | –
